# In article PMC5843810, “18th European Symposium on Radiopharmacy and Radiopharmaceuticals” (EJNMMI Radiopharmacy and Chemistry, 2016):
# Read-outs that look alike come from different tables or passages of the source.
# Key:
# [1] = in vivo; conditions: C57BL/6, mouse, αvβ3-positive melanoma tumor, iv, total radioactivity
# Procedure: Materials and methods: cRGDfK was functionalized with N3CH2COOH and N3PEG7COOH at ε-amino group of lysine. […] Biodistribution study of the two radiotracers was carried out in C57BL/6 mice bearing αvβ3-positive melanoma tumors. The radioactive preparation (~3.7 MBq/animal, 100 μL) was injected intravenously through the lateral tail vein. At different time intervals after injection (30, 60, and 180 min), the animals (n = 4/time point) were sacrificed and the relevant organs excised for measurement of retained activity.
# [2] = target: prostacyclin receptor (IPR) (Homo sapiens, UniProt P43119); assay: Affinity for prostacyclin receptor (IPR); assay type: binding
# Chain of prostacyclin receptor (IPR) (P43119 whole entry, species assumed): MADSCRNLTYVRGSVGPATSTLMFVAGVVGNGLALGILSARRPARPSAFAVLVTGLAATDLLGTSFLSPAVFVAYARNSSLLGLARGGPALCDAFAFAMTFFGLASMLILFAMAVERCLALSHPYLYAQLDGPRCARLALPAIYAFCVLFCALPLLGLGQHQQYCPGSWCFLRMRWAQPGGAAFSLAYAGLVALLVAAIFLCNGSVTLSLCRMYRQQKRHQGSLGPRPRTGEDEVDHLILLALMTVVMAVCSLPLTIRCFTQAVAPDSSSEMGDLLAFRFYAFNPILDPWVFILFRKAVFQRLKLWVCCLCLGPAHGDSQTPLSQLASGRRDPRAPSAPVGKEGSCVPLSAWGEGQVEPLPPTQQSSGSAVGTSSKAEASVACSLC
# From the text: This concept was applied to the development of a prostacyclin receptor (IPR) tracer.
# [3] = CHI(IAM) non-specific binding measurement; assay type: physicochemical; conditions: experimental non-specific binding measurement
# From the text: Materials and methods: Similarly to the Ligand Efficiency (LE) index, we explored the usefulness of the Ligand Specific Efficiency index (LSE), which we defined as the ratio between affinity (expressed as e.g. pIC50 or pKd), and the logarithmic value of the experimental non-specific binding measurement, CHI(IAM).^[Jiang] LSE provides a measure of affinity, normalized to non-specific binding.
# [4] = target: T1, CSF-1R (Rattus norvegicus, UniProt Q00495); assay type: in vivo; conditions: female rats
# T1 construct: from tissue; host or cells: living female rats (brain)
# T1 sequence (Q00495 20-978): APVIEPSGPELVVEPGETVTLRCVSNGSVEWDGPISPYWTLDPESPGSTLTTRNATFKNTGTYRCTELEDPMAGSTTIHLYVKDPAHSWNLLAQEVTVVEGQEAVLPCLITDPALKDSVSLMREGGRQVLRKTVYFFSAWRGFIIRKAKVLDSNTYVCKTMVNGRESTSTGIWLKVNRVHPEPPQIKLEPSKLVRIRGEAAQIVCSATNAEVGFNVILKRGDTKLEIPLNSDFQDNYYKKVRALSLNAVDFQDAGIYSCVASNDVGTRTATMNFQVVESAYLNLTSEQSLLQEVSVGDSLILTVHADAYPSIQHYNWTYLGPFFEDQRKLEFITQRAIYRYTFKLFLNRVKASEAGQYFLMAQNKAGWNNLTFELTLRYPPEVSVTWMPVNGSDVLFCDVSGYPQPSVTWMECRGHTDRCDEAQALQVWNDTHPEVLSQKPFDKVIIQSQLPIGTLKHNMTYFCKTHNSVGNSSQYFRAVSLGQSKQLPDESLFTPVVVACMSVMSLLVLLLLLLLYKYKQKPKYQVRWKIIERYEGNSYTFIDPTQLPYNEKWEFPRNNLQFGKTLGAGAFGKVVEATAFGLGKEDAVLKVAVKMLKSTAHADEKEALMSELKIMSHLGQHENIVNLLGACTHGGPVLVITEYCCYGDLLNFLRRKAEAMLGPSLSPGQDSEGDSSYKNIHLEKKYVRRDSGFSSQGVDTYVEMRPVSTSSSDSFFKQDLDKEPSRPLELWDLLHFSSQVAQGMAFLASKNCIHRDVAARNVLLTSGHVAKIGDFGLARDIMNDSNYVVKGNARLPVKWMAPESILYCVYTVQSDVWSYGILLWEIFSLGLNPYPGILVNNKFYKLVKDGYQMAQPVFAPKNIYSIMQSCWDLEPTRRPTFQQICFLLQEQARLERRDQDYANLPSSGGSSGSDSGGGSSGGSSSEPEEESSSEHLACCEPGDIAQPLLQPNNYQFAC
# From the text: (§1) Materials and methods: All the chemicals and reagents used in the experiments were obtained from commercial sources and used without any further purification. Synthesis of 5-cyano-N-(4-(4-methylpiperazine-1-yl)-2-(4-methylpiperidin-1-yl)phenyl)furan-2-carboxamide and 5-cyano-N-(2-(4-methylpiperidine-1-yl)-4-(piperazine-1-yl)phenyl)furan-2-carboxamide molecules were done according to literature methods available with slight modifications for radiolabeling experiments^3. The [^11C]-methyl triflate reacts with the precursor in presence of a base at room temperature for 2 minutes gives the carbon-11 radiolabeled [^11C]BA-1 which was purified by using semi-preparative reversed-phase high pressure liquid chromatography (RP-HPLC). The peak corresponding the reference compound will be collected and checked for the purity using analytical RP-HPLC. Baseline biodistribution study was performed at 2, 10, 30 and 60 min. respectively. Blocking experiment (10 mg/kg cold compound) was performed at 30 min time point in healthy female adult mice n=3 and compared with vehicle treated batch. In vitro autoradiography experiments were carried on rat brain slices by incubating tracer and cold blocking solution. MicroPET imaging studies were performed on a Focus™ 220 microPET scanner with female rats.
# [5] = assay type: in vivo; conditions: healthy mice, 2 min
# From the text: as §1
# [6] = Biodistribution and pharmacokinetics in healthy Balb/C mice; assay type: in vivo
# Procedure: (§2) Material and methods: [^18F]Amylovis® was synthesized by nucleophilic substitution of the tosyl group of the precursor. Thirty five healthy male Balb/C mice of 10-12 weeks were divided into […] of 5 animals each and injected with similar doses of [^18F]Amylovis® through a lateral tail vein. Blood samples were collected and the animals were sacrificed at 5, 15, 30, 45, 70 and 180 minutes. Organs of interest were removed and washed with saline. Radioactivity of blood, plasma, urine, faeces, brain, cerebellum, heart, liver, stomach, spleen, bowel, colon, left kidney, muscle, bone and tail was measured in a well counter. To assess protein binding, plasma samples were diluted with acetonitrile and centrifuged at 4000 g. Pellets of proteins and supernatants were separated and their radioactivity measured in a well counter. RadioTLC analysis of plasma were performed for the same purpose in silicagel 60 and mobile phase of acetonitrile/water (95/5). 20μL of each supernatant was analysed by HPLC-RP using a C18 column and acetonitrile/water (75/25) as mobile phase to identify plasma metabolites. Pharmacokinetic parameters (AUC, t1/2, Cmax, Cl, Vss) were calculated using non-compartmental analysis (NCA). Dynamic PET/CT images of healthy and transgenic APPSwe/PS1dE9 mice were acquired for 2.5 h after i.v. administration. […]
# [7] = Plasma protein binding (acetonitrile precipitation, radioTLC); assay type: in vitro ADME, mice; conditions: mouse plasma
# Procedure: as §2
# [8] = target: MCHR1 (Rattus norvegicus, UniProt P97639); conditions: rats, n=3
# Chain of MCHR1 (P97639 whole entry): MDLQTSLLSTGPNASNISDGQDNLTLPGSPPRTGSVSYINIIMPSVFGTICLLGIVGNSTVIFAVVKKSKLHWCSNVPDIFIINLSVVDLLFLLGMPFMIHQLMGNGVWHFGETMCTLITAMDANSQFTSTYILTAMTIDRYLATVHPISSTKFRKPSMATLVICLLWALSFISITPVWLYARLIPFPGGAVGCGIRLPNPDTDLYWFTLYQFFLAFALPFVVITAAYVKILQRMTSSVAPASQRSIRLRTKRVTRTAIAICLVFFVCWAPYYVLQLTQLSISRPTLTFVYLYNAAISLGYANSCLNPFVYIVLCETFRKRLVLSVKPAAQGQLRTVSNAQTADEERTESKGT
# Procedure: Materials and methods: In vivo experiments were conducted in naïve male Sprague Dawley rats. For small-animal PET/CT/MR experiments, rats were anesthetized by isoflurane. 25min after [^18F]FE@SNAP iv injection (47.8±1MBq; SA: 19.7±6GBq/μmol), vehicle (baseline group, n=3) or 15mg/kg SNAP-7941 (blocking group, n=3) were administered through the tail vein. 75min after tracer injection, the rats were sacrificed. Radioactivity concentrations in brain were calculated and expressed as SUVs. In another set of experiments, [^18F]FE@SNAP (51.3±26MBq; SA: 36.1±28GBq/μmol) as well as vehicle (baseline group, n=3) or 15mg/kg SNAP-7941 (blocking group, n=3) were injected into conscious freely moving rats via a permanent catheter implanted into the jugular vein, thus excluding an influence of anaesthesia. 45min after tracer application, rats were sacrificed, the brain was removed and cut for ex vivo autoradiography. Subsequently, brain slices were put on Phosphor Imager plates for exposure and analyzed with a Cyclone Phosphor Imager the following day. Regions of interest (ROIs) were drawn for the hypothalamic region, the ventricle and a non-target region.
# [9] = test system: B16-F10 pulmonary metastatic melanoma; conditions: NMRI mice, B16-F10 lung metastases, 1h-post injection PET, n=8
# Procedure: (§3) Materials and methods: [^18F]MEL050 was synthesized using a one-step bromine-for-fluorine nucleophilic heteroaromatic substitution. Briefly, [^18F]MEL050 was prepared from a bromo-precursor, using no-carrier-added 18F-KF-Kryptofix 222 (dimethylformamide, 150°C, 6 min), followed by preparative HPLC purification (C18 column (300x7.8 mm, 7 μm), isocratic elution with acetonitrile/20 mM ammonium bicarbonate (20:80, v/v), 3.0 ml/min) and cartridge-reformulation (Sep-Pak® Plus C18 environmental) of the collected fraction. Radiochemical and chemical purity, stability and specific activity measurements were monitored using analytical HPLC. Chemical identity of the labeled compound [^18F]MEL050 was assessed by co-injection with non-radioactive standard MEL050. Experimental model of pulmonary metastatic melanoma was obtained by IV injection of B16-F10 cells in NMRI mice. Mice (n=8) were imaged 15 days after inoculation, using INVEON microPET/CT device (Siemens), after IV injection of 0.36±0.04MBq/g of [^18F]MEL050. Dynamic and static acquisitions were acquired from time of injection to 2h after tracer injection. The maximum percentage of [^18F]MEL050 Injected Dose per g of lung tissue (%ID/g Max) was determined using ROIs manually drawn on 1h-post injection PET images, and correlated to ex-vivo findings.
# [10] = over 6 h, analytical HPLC
# Procedure: as §3
# [11] = PET/CT imaging in nude mice bearing U87MG xenograft tumor; assay type: in vivo; conditions: mouse, 90 min post injection
# Procedure: Materials and methods: The PET imaging properties of [^68Ga]FSC(succ-RGD)3 were studied in nude mice bearing M21 human melanoma xenografts and human glioblastoma U87MG xenograft tumor. A parallel PET imaging of ^68GaNODAGA-RGD in same mouse bearing U87MG xenograft tumor was performed as a comparison.
# [12] = target: T2, PSMA (Homo sapiens, UniProt Q04609); assay: Competitive binding assay on PSMA-positive LNCaP cells against 68Ga-PSMA-10; conditions: against 68Ga-PSMA-10, cold reference compounds
# T2 construct: endogenous in cells; host or cells: LNCaP
# T2 sequence (Q04609 whole entry): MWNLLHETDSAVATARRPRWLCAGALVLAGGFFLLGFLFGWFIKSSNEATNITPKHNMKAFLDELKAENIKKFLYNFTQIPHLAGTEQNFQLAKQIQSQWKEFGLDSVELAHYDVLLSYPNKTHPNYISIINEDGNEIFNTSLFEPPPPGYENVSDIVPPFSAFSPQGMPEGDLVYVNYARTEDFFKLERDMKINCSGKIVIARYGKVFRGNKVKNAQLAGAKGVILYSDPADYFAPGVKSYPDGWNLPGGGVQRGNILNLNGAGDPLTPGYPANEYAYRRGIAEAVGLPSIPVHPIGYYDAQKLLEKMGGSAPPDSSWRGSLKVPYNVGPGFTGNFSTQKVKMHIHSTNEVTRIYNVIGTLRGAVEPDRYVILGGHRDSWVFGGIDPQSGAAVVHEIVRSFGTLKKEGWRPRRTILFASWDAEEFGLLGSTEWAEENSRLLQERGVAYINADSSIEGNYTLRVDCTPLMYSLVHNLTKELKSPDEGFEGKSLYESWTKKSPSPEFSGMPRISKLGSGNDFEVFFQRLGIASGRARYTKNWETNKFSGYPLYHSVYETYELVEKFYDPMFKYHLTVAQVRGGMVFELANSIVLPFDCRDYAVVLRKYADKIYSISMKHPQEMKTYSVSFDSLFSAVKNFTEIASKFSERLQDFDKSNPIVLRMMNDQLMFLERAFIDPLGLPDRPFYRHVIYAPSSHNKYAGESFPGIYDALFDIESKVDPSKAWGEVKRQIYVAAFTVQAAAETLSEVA
# Procedure: (§4) Materials and methods: The PSMA binding motif Glu-NH-CO-NH-Lys was synthesized by a well-established method (4) using solid phase chemistry and subsequently an amino acid linker was built up by fmoc-based solid phase peptide synthesis (SPPS). The non-radioactive reference compounds were also prepared analogically and eventually conjugated by 6-fluoronicotinic acid. After separation from the resin and deprotection the peptidomimetics were labeled using the TFP-ester of 6-[^18F]fluoronicotinic acid as prosthetic group. The Ki values of all compounds were determined by competitive binding assays on PSMA-positive LNCaP cells against ^68Ga-PSMA-10 (5) using the respective cold reference compounds. Additionally, the cellular internalization of the radiofluorinated ligands was determined.
# [13] = test system: LNCaP cells; assay: Cellular internalization of radiofluorinated PSMA ligands; assay type: cell-based; conditions: in vitro
# Procedure: as §4
# [14] = test system: U-87 MG and SKOV-3 tumours; conditions: 1 h after injection
# Procedure: The in vitro binding characteristics of FPyPEGCBT-c(RGDfK) were analysed by standard binding assay in U-87 MG and SKOV-3 cancer models and its selectivity towards integrins by siRNA depletions. Its preclinical potential was studied in mice bearing subcutaneous tumours by ex vivo biodistribution studies and in vivo microPET/CT imaging.
molecule,measurement,setting,value
"N=C(N)NCCC[C@@H]1NC(=O)[C@H](CCCCNC(=O)Cn2cc(C[C@H](N)C(=O)O)nn2)NC(=O)[C@@H](Cc2ccccc2)NC(=O)[C@H](CC(=O)O)NC(=O)CNC1=O [99mTc(CO)3-Pra-Tz-CH2-cRGDfK, metal not drawn]",tissue uptake at 0.5 h,[1],3.01 ± 0.77 %ID/g
"N=C(N)NCCC[C@@H]1NC(=O)[C@H](CCCCNC(=O)CCOCCOCCOCCOCCOCCOCCOCCn2cc(C[C@H](N)C(=O)O)nn2)NC(=O)[C@@H](Cc2ccccc2)NC(=O)[C@H](CC(=O)O)NC(=O)CNC1=O [99mTc(CO)3-Pra-Tz-PEG7-cRGDfK, metal not drawn]",tissue uptake at 0.5 h,[1],4.11 ± 0.51 %ID/g
CC(C)Oc1ccc(Cc2ccc(NC3=NCCN3)cc2)cc1.Cl [Ro1138452],Ki,[2],0.23 nM
same,CHI(IAM),[3],58
"CC1CCN(c2cc(N3CCN(C)CC3)ccc2NC(=O)c2ccc(C#N)o2)CC1 [[11C]-BA1, 5-cyano-N-(4-(4-methylpiperazine-1-yl)-2-(4-methylpiperidin-1-yl)phenyl)furan-2-carboxamide]","brain SUV, baseline",[4]; baseline microPET,1.2 SUV
same,"brain SUV, with blocking",[4]; blocking with cold compound,2 SUV
same,lung uptake,[5],14 % ID
same,tracer uptake into the brain,[5],4 % ID
"COc1ccc2cc(CCC[18F])ccc2c1 [[18F]Amylovis®, [^18F]-2-(3-fluoropropyl)-6-methoxynaphtalene]",Plasma T1/2,"[6]; Balb/C mice, i.v., non-compartmental analysis",37 min
same,blood brain barrier crossing,[6]; mice,crossed blood brain barrier
same,protein binding,[7],No significant protein binding
COCC1=C(C(=O)OCC[18F])C(c2ccc(F)c(F)c2)N(C(=O)NCCCN2CCC(c3cccc(NC(C)=O)c3)CC2)C(=O)N1 (stereo not drawn) [[18F]FE@SNAP],"SUV in the ventricular system, blocking group",[8]; 15mg/kg SNAP-7941 25min after tracer,0.34±0.07 SUV
same,"SUV in the ventricular system, baseline group",[8]; vehicle 25min after tracer,0.73±0.11 SUV
CCN(CC)CCNC(=O)c1ccc([18F])nc1 [[18F]MEL050],%ID/g Max in lung tumours,[9],4.7±2.6%
same,product stability (RCP),[10],> 98%
"C/C1=C/C(=O)N(O)CCC[C@H](NC(=O)CCC(=O)NCCCC[C@@H]2NC(=O)[C@@H](Cc3ccccc3)NC(=O)[C@H](CC(=O)O)NC(=O)CNC(=O)[C@H](CCCNC(=N)N)NC2=O)C(=O)OCC/C(C)=C\C(=O)N(O)CCC[C@H](NC(=O)CCC(=O)NCCCC[C@@H]2NC(=O)[C@@H](Cc3ccccc3)NC(=O)[C@H](CC(=O)O)NC(=O)CNC(=O)[C@H](CCCNC(=N)N)NC2=O)C(=O)OCC/C(C)=C\C(=O)N(O)CCC[C@H](NC(=O)CCC(=O)NCCCC[C@@H]2NC(=O)[C@@H](Cc3ccccc3)NC(=O)[C@H](CC(=O)O)NC(=O)CNC(=O)[C@H](CCCNC(=N)N)NC2=O)C(=O)OCC1 [[68Ga]FSC(succ-RGD)3, metal not drawn]",tissue to tissue ratio at […],"[11]; tumour and kidneys, read-out: tumor/kidneys ratio",1.3
same,tissue to tissue ratio at […],"[11]; tumour and muscle, read-out: tumor/muscle ratio",4.9
PSMA-1007,Ki,[12],6 nM
same,internalization ratio,[13],about 70%
[18F]FPyPEGCBT-c(RGDfK) (head to tail),"tumour uptake, SKOV-3",[14],2.4 %ID/g
same,"tumour uptake, U-87 MG",[14],2.9 %ID/g
